Where “and” joins values, the source holds several entries; their conditions need not be identical. Equal values may be shown once.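 Results reflect a 48-hour exposure of cells in 96-well plates to compound at five concentrations. GI50 = concentration required for 50% inhibition of growth. TGI marks complete inhibition of growth.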

Some test systems named below: KM20L2 colon; 786-0 renal; SNB-19 CNS; OVCAR-3 ovarian; SK-OV-3 ovarian; DMS 273 small cell lung; MDA-MB-435; BT-549 breast; HS 578T breast.
Holding throughout (experiment): NCI-60 cell line screen, 48 h

Consider `Cc1nc(Nc2ccc(Cl)cc2)sc1C(=O)Nc1cccc2c(=O)[nH][nH]c(=O)c12`, for which the TGI was 41.2 µM in the test with KM20L2 colon; 47.9 µM in the test with 786-0 renal; above 100 µM in the test with SNB-19 CNS; 40.4 µM with OVCAR-3 ovarian; above 100 µM with SK-OV-3 ovarian; above 100 µM in the test with DMS 273 small cell lung.

Take `CCNC(=O)COc1ccc(Cl)c(C)c1`: the TGI in the test on KM20L2 colon, in the test on 786-0 renal, with SNB-19 CNS, with OVCAR-3 ovarian, with SK-OV-3 ovarian and in the test with DMS 273 small cell lung was above 100 µM throughout.

Regarding `COc1cccc(C=NC23CC4CC(CC(C4)C2)C3)c1`, the TGI in the test with KM20L2 colon, in the test on 786-0 renal, in the test with SNB-19 CNS, in the test on OVCAR-3 ovarian, in the test on SK-OV-3 ovarian and with DMS 273 small cell lung was above 100 µM throughout.

With `Nc1ccccc1SC(/C=C/NNC1=NC(c2ccccc2)C(c2ccccc2)=NN1)c1ccccc1` (stereo unspecified), the TGI in the test with KM20L2 colon worked out at 44.9 µM; in the test on 786-0 renal it was 25 µM; in the test with SNB-19 CNS, 43.8 µM; in the test with OVCAR-3 ovarian it was 26.1 µM; with SK-OV-3 ovarian, 44.4 µM; in the test on DMS 273 small cell lung, 36.8 µM.

For the compound `Cc1cc(O)c2c(c1)OC1(C)CCC3C(C)(C)CCCC34COC2C14` (stereo unspecified), the TGI was determined as 33.3 µM in the test with KM20L2 colon; 30.7 µM in the test on 786-0 renal; 32.7 µM with SNB-19 CNS; 26.8 µM with OVCAR-3 ovarian; 27.1 µM in the test on DMS 273 small cell lung.

For `COC(=O)C1=C(O)c2cc(OC)c(OC)c(OC)c2C(c2ccc3c(c2)OCO3)[C@@H]1C(=O)OC` (stereo partly specified), the TGI in the test on KM20L2 colon was 6.43 µM; in the test on 786-0 renal, above 100 µM; in the test on OVCAR-3 ovarian it was 5.3 µM; in the test on SK-OV-3 ovarian, 8.76 µM; in the test on DMS 273 small cell lung, above 100 µM.

For the compound `O=C(Cc1nc2ccccc2s1)C(=O)Nc1cccc(C(F)(F)F)c1`, the TGI in the test on KM20L2 colon, in the test with 786-0 renal, in the test on SNB-19 CNS, in the test on OVCAR-3 ovarian, in the test on SK-OV-3 ovarian and in the test with DMS 273 small cell lung was above 100 µM in each case.

Regarding `N.N.N.N.O=S([O-])[O-].[Co+3].[N-]=[N+]=[N-]`, the GI50 with KM20L2 colon, in the test on 786-0 renal, in the test on SNB-19 CNS, in the test on OVCAR-3 ovarian, in the test with SK-OV-3 ovarian and in the test on DMS 273 small cell lung was above 100 µM in each case. Besides, the TGI in the test on KM20L2 colon, with 786-0 renal, in the test with SNB-19 CNS, in the test on OVCAR-3 ovarian, in the test with SK-OV-3 ovarian and in the test with DMS 273 small cell lung was above 100 µM in each case.

Consider `Cc1nc(C(=O)OCc2ccccc2)cc(OCc2ccccc2)c1C`, for which the GI50 is 21.2 µM in the test on 786-0 renal; 27.8 µM with SNB-19 CNS; 18.5 µM with MDA-MB-435; 17.9 µM with BT-549 breast; 11.4 µM in the test on OVCAR-3 ovarian; above 89 µM with SK-OV-3 ovarian. Further, the GI50 with HS 578T breast was 18.6 µM. Besides, the TGI with 786-0 renal was 50.9 µM; in the test on SNB-19 CNS, above 82.8 µM; with MDA-MB-435 it was above 54.6 µM; in the test on BT-549 breast, 34.2 µM; in the test on OVCAR-3 ovarian, 26.2 µM; in the test on SK-OV-3 ovarian, above 100 µM. This compound also displayed a TGI in the test on HS 578T breast of 47.9 µM.

Turning to `O=C(C#Cc1ccccc1)NC/C=C/c1ccccc1`, the TGI was above 100 µM with KM20L2 colon; 56.2 µM in the test on 786-0 renal; 79.9 µM in the test on SNB-19 CNS; above 100 µM in the test on OVCAR-3 ovarian; 56.6 µM in the test with SK-OV-3 ovarian.

Take `COc1cc(C=NCC(=O)CSC(c2ccccc2)c2ccccc2)ccc1O`: the GI50 in the test with 786-0 renal is 14.9 µM; with SNB-19 CNS it was 14.5 µM; with MDA-MB-435, 14.3 µM; with BT-549 breast, 14 µM; in the test on OVCAR-3 ovarian it was 11.3 µM; in the test with SK-OV-3 ovarian it was 3.58 µM. Besides, the GI50 with HS 578T breast is 0.0464 µM. Besides, the TGI in the test on 786-0 renal was 28.2 µM; with SNB-19 CNS, 28.7 µM; with MDA-MB-435, 35.7 µM; in the test with BT-549 breast it was 31.6 µM; in the test with OVCAR-3 ovarian, 24.9 µM; in the test on SK-OV-3 ovarian, 17.2 µM. This compound also registered a TGI in the test with HS 578T breast of 5.52 µM.

On to `CCOC1=C/C(=N\Nc2ccc([N+](=O)[O-])cc2)CCC1`, for which the TGI was above 100 µM in the test with 786-0 renal; above 100 µM in the test with SNB-19 CNS; above 100 µM in the test with MDA-MB-435; 43.8 µM with BT-549 breast; above 100 µM with OVCAR-3 ovarian; above 100 µM with SK-OV-3 ovarian. Further, the TGI in the test on HS 578T breast is above 100 µM.

Take `COC(=O)c1c(C(=O)O)c(-c2ccccc2)c(-c2ccccc2)c(-c2ccccc2)c1-c1ccccc1`: the GI50 in the test with 786-0 renal was above 100 µM; with SNB-19 CNS, 23.1 µM; in the test on MDA-MB-435, above 100 µM; in the test with BT-549 breast it was above 100 µM; with OVCAR-3 ovarian, above 100 µM; in the test on SK-OV-3 ovarian, above 100 µM. The GI50 in the test on HS 578T breast was above 100 µM. The TGI with 786-0 renal, in the test on SNB-19 CNS, in the test with MDA-MB-435, with BT-549 breast, with OVCAR-3 ovarian and in the test with SK-OV-3 ovarian was above 100 µM in each case. The compound further showed a TGI in the test with HS 578T breast above 100 µM.

With `O=C(Nc1ccccc1)N1C(c2ccccc2)=N[C@@H](c2ccccc2)[C@@H]1c1ccccc1`, the TGI with KM20L2 colon turned out to be 37.3 µM; with 786-0 renal it was 34.7 µM; with SNB-19 CNS, 97.9 µM; with OVCAR-3 ovarian, 62.8 µM.

Take `OC(Cc1cccc2ccccc12)CN1CCC(c2ccccc2)CC1` (stereo unspecified): the TGI in the test with 786-0 renal stood at 28.3 µM; in the test on SNB-19 CNS, 26.3 µM; with MDA-MB-435 it was 28.3 µM; with BT-549 breast it was 31.3 µM; in the test on OVCAR-3 ovarian, 30.5 µM; in the test on SK-OV-3 ovarian, 31.3 µM. In the test on HS 578T breast, this compound returned a TGI of 32.4 µM.

Regarding `COc1ccc(C(=O)Cn2c(C(=O)c3ccc(Cl)cc3)nc(-c3ccccc3)c2-c2ccccc2)cc1`, the GI50 was 79.6 µM in the test on 786-0 renal; 78.3 µM in the test with SNB-19 CNS; above 100 µM with MDA-MB-435; above 100 µM in the test on BT-549 breast; above 100 µM in the test with OVCAR-3 ovarian; 60.1 µM in the test on SK-OV-3 ovarian. Besides, the GI50 in the test with HS 578T breast was 44.1 µM. In addition, the TGI in the test on 786-0 renal, in the test on SNB-19 CNS, in the test with MDA-MB-435, with BT-549 breast, in the test with OVCAR-3 ovarian and in the test with SK-OV-3 ovarian was above 100 µM each time. Moreover, in the test with HS 578T breast, the TGI is above 100 µM.

Consider `CCCC(=O)Nc1cc(/C=C/C(=O)N2C[C@@H]3C[C@]34C2=CC(=O)c2[nH]cc(C)c24)n(C)c1`, for which the GI50 was 0.021 µM in the test on 786-0 renal; 0.18 µM with SNB-19 CNS; 0.184 µM with MDA-MB-435; 0.233 µM with BT-549 breast; 0.143 µM with HS 578T breast. The TGI in the test with SNB-19 CNS is 25 µM and 11.3 µM; in the test with MDA-MB-435, 1.05 µM and 0.471 µM; with BT-549 breast, 1.96 µM and 0.749 µM; with OVCAR-3 ovarian, 1.2 µM; with SK-OV-3 ovarian, 7.97 µM; with HS 578T breast it was 1.96 µM and 0.55 µM.

As for `O=C(CC1(O)CCCCC1)OC1CCCC1`, the TGI with 786-0 renal, in the test with SNB-19 CNS, in the test on MDA-MB-435, in the test with BT-549 breast, in the test on OVCAR-3 ovarian and in the test on SK-OV-3 ovarian was above 100 µM throughout. The same compound registered a TGI in the test with HS 578T breast above 100 µM.

In the case of `O=C(O)CCN1C(=S)CSC1=S`, the TGI with 786-0 renal, in the test with SNB-19 CNS, in the test on MDA-MB-435, in the test with BT-549 breast, in the test with OVCAR-3 ovarian and in the test on SK-OV-3 ovarian was above 100 µM each time. The TGI in the test with HS 578T breast is above 100 µM.

Take `CC(=O)/C(=N\N=C(N)N)c1ccccc1`: the TGI in the test on 786-0 renal, with SNB-19 CNS, with MDA-MB-435, in the test on BT-549 breast, with OVCAR-3 ovarian and in the test on SK-OV-3 ovarian was above 100 µM in each case. The compound also had a TGI with HS 578T breast above 100 µM.

`C=C(CN1CCN(c2ccccn2)CC1)c1ccc(C(=O)Nc2ccccc2N)cc1`: the GI50 with 786-0 renal was 1.2 µM; in the test on SNB-19 CNS, 4.87 µM; in the test with MDA-MB-435, 0.522 µM; in the test on BT-549 breast it was 3.95 µM; in the test on OVCAR-3 ovarian, 1.25 µM; with SK-OV-3 ovarian, 1.3 µM. Moreover, in the test with HS 578T breast, the GI50 is 1.11 µM. Moreover, the TGI with 786-0 renal is 8.15 µM; in the test with SNB-19 CNS, 29.7 µM; with MDA-MB-435, 1.4 µM; in the test on BT-549 breast, 37.4 µM; in the test with OVCAR-3 ovarian, 4.39 µM; in the test with SK-OV-3 ovarian, 4.44 µM. Also, in the test with HS 578T breast, the TGI was 6.28 µM.

In the case of `CN(C)C(=S)/N=c1\ssc(=Nc2ccccc2)n1-c1ccccc1`, the TGI is 37.1 µM with 786-0 renal, 28.3 µM in the test with OVCAR-3 ovarian, 80.5 µM in the test on SK-OV-3 ovarian and 48.5 µM in the test on DMS 273 small cell lung.

`CN1C2C=CC(=O)C1C(C#N)C2` (stereo unspecified): the GI50 in the test on 786-0 renal was 16.3 µM and 51.7 µM; with BT-549 breast it was 34.5 µM and 93.1 µM. Further, the TGI was 35.5 µM and > 100 µM in the test with 786-0 renal; above 100 µM in the test on SNB-19 CNS; above 100 µM in the test with MDA-MB-435; above 100 µM in the test with BT-549 breast; above 100 µM in the test on OVCAR-3 ovarian; above 100 µM in the test with SK-OV-3 ovarian. In the test on HS 578T breast, this compound showed a TGI above 100 µM.

`NCCOCCOCC(=O)O`: the TGI in the test with KM20L2 colon, in the test with 786-0 renal, in the test with SNB-19 CNS, in the test on OVCAR-3 ovarian, with SK-OV-3 ovarian and in the test on DMS 273 small cell lung was above 100 µM each time.

(Values after PubChem BioAssay (NCI).)
